In ChEMBL document CHEMBL5241107, “Discovery of an eIF4A Inhibitor with a Novel Mechanism of Action” (J Med Chem, 2021):
The source made the active and inactive calls. The rule behind the calls is not given here.

Legend:
BJAB = assay: Cytotoxicity against human BJAB cells assessed as reduction in cell viability measured after 72 hrs by CellTiter-Glo luminescent assay; assay type: functional, cell-based
[1] = target: T1, Eukaryotic initiation factor 4A-I (Homo sapiens, UniProt P60842); assay: Inhibition of human recombinant N-terminal His6-tagged eIF4A expressed in Escherichia coli BL21 CodonPlus cells using ATP and yeast RNA as substrate preincubated with enzyme for 20 mins followed by susbtrate addition and measured after 4 hrs by Malachite green ATPase assay
T1 sequence (P60842 whole entry): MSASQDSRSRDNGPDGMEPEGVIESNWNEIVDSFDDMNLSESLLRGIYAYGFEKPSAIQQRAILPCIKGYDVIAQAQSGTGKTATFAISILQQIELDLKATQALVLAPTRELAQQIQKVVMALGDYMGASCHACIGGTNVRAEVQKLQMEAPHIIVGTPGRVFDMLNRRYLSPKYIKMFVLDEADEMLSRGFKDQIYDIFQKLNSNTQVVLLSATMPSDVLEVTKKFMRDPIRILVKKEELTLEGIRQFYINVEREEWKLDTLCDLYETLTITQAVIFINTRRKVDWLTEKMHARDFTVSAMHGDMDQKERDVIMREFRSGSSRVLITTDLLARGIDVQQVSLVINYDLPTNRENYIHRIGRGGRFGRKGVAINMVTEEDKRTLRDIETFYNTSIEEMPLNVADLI

Reticulocyte [2] = assay: Inhibition of IRES-dependent translation of renilla luciferase in rabbit reticulocyte lysates using bicistronic luciferase reporter [pSP/(CAG)33/FF/HCV/Ren.pA51] at 100 nM incubated for 90 mins by luciferase reporter gene based luminescence analysis; assay type: functional, subcellular; settings: Oryctolagus cuniculus
Reticulocyte [3] = assay: Inhibition of eIF4A in rabbit reticulocyte lysate assessed as inhibition of cap-dependent translation of firefly luciferase using bicistronic luciferase reporter [pSP/(CAG)33/FF/HCV/Ren.pA51] at 100 nM incubated for 90 mins by luciferase reporter gene based luminescence analysis; assay type: subcellular; settings: Oryctolagus cuniculus
[4] = target: T1, Eukaryotic initiation factor 4A-I; assay: Binding affinity to eIF4A in human A549 cells assessed as increase in thermal stability of the protein at 100 nM incubated for 90 mins by CETSA analysis; assay type: cell-based
[5] = target: T1, Eukaryotic initiation factor 4A-I; assay: Displacement of FAM-[AG]8 from human recombinant N-terminal His6-tagged eIF4A expressed in Escherichia coli BL21 CodonPlus cells preincubated with enzyme for 20 mins followed by FAM-[AG]8 addition for 30 mins by fluorescence polarization assay; settings: time 50.0 min
[6] = target: Eukaryotic initiation factor 4A-I (Homo sapiens, UniProt P60842, R110E); assay: Inhibition of human recombinant N-terminal His6-tagged eIF4A R110E mutant expressed in Escherichia coli BL21 CodonPlus cells using ATP and yeast RNA as substrate preincubated with enzyme for 20 mins followed by susbtrate addition and measured after 4 hrs by Malachite green ATPase assay
Chain of Eukaryotic initiation factor 4A-I (Homo sapiens, UniProt P60842, R110E) (P60842 2-406 R110E limits assumed): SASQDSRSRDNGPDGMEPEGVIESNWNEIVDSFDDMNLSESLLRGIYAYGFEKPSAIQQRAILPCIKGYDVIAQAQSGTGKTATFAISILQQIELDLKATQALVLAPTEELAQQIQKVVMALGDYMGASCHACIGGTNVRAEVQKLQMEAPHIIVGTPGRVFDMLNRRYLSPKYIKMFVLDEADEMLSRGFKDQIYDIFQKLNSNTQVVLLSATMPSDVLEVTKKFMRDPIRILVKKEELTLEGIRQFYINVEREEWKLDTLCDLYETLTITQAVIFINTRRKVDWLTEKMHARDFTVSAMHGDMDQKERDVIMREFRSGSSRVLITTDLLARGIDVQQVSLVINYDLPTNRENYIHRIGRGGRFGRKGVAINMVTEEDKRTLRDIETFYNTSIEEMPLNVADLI

[7] = target: T1, Eukaryotic initiation factor 4A-I; assay: Binding affinity to human recombinant N-terminal His6-tagged eIF4A expressed in Escherichia coli BL21 CodonPlus cells assessed as increase in melting temperature at 3.13 to 50 uM incubated for 5 mins by differential scanning fluorimetry; settings: dose 3.13-50 µM
[8] = test system: Eukaryotic initiation factor 4A-I (Homo sapiens), P60842 [R110K]; assay: Inhibition of human recombinant N-terminal His6-tagged eIF4A R110K mutant expressed in Escherichia coli BL21 CodonPlus cells using ATP and yeast RNA as substrate preincubated with enzyme for 20 mins followed by susbtrate addition and measured after 4 hrs by Malachite green ATPase assay; settings: time 260.0 min
Chain of Eukaryotic initiation factor 4A-I (Homo sapiens), P60842 [R110K] (P60842 whole entry R110K): as the sequence (P60842 whole entry) above, with R110K counted along it

[9] = target: T1, Eukaryotic initiation factor 4A-I; assay: Inhibition of helicase activity of human recombinant N-terminal His6-tagged eIF4A expressed in Escherichia coli BL21 CodonPlus cells using Cy3-labeled RNA strand and unlabeled DNA strand by native PAGE analysis
[10] = target: T1, Eukaryotic initiation factor 4A-I; assay: Competitive inhibition of human recombinant N-terminal His6-tagged eIF4A expressed in Escherichia coli BL21 CodonPlus cells assessed as […] with constant Vmax of RNA using 250 uM ATP and varying concentration of yeast RNA as substrate preincubated with enzyme for 20 mins followed by substrate addition and measured after 1 to 7 hrs by Malachite green ATPase assay; settings: time 80-440 min
[11] = target: Eukaryotic initiation factor 4A-I (Homo sapiens, UniProt P60842, T158V); assay: Inhibition of human recombinant N-terminal His6-tagged eIF4A T158V mutant expressed in Escherichia coli BL21 CodonPlus cells using ATP and yeast RNA as substrate preincubated with enzyme for 20 mins followed by susbtrate addition and measured after 4 hrs by Malachite green ATPase assay
Chain of Eukaryotic initiation factor 4A-I (Homo sapiens, UniProt P60842, T158V) (P60842 2-406 T158V limits assumed): as the sequence (P60842 2-406 R110E limits assumed) above, with E109R, T157V counted along it

[12] = target: Eukaryotic initiation factor 4A-I (Homo sapiens, UniProt P60842, R311K); assay: Inhibition of human recombinant N-terminal His6-tagged eIF4A R311K mutant expressed in Escherichia coli BL21 CodonPlus cells using ATP and yeast RNA as substrate preincubated with enzyme for 20 mins followed by susbtrate addition and measured after 4 hrs by Malachite green ATPase assay
Chain of Eukaryotic initiation factor 4A-I (Homo sapiens, UniProt P60842, R311K) (P60842 2-406 R311K limits assumed): as the sequence (P60842 2-406 R110E limits assumed) above, with E109R, R310K counted along it

[13] = target: T1, Eukaryotic initiation factor 4A-I; assay: Uncompetitive inhibition of human recombinant N-terminal His6-tagged eIF4A expressed in Escherichia coli BL21 CodonPlus cells assessed as decrease in Km and Vmax of ATP using varying concentrations of ATP and 250 ug/ml yeast RNA as substrate preincubated with enzyme for 20 mins followed by substrate addition and measured after 1 to 7 hrs by Malachite green ATPase assay; settings: time 80-440 min
Reticulocyte [14] = assay: Inhibition of eIF4A in rabbit reticulocyte lysate assessed as inhibition of cap-dependent translation of firefly luciferase using bicistronic luciferase reporter [pSP/(CAG)33/FF/HCV/Ren.pA51] incubated for 90 mins by luciferase reporter gene based luminescence analysis; assay type: subcellular; settings: Oryctolagus cuniculus
[15] = target: T1, Eukaryotic initiation factor 4A-I; assay: Binding affinity to eIF4A in human A549 cells assessed as increase in thermal stability of the protein incubated for 90 mins by CETSA analysis; assay type: cell-based; settings: dose 0.041-10 µM
[16] = target: T1, Eukaryotic initiation factor 4A-I; assay: Inhibition of helicase activity of human recombinant N-terminal His6-tagged eIF4A expressed in Escherichia coli BL21 CodonPlus cells assessed as increase in double stranded signal using Cy3-labeled RNA strand and unlabeled DNA strand by native PAGE analysis
[17] = target: Eukaryotic initiation factor 4A-I (Homo sapiens, UniProt P60842, T158A); assay: Inhibition of human recombinant N-terminal His6-tagged eIF4A T158A mutant expressed in Escherichia coli BL21 CodonPlus cells using ATP and yeast RNA as substrate preincubated with enzyme for 20 mins followed by susbtrate addition and measured after 4 hrs by Malachite green ATPase assay
Chain of Eukaryotic initiation factor 4A-I (Homo sapiens, UniProt P60842, T158A) (P60842 2-406 T158A limits assumed): as the sequence (P60842 2-406 R110E limits assumed) above, with E109R, T157A counted along it

[18] = target: T1, Eukaryotic initiation factor 4A-I; assay: Displacement of MANT-ATP from human recombinant N-terminal His6-tagged eIF4A expressed in Escherichia coli BL21 CodonPlus cells at 200 uM preincubated with enzyme and yeast RNA for 20 mins followed by MANT-ATP addition for 30 mins by fluorescence polarization assay; settings: time 50.0 min
[19] = target: Eukaryotic initiation factor 4A-I (Homo sapiens, UniProt P60842, R110L); assay: Inhibition of human recombinant N-terminal His6-tagged eIF4A R110L mutant expressed in Escherichia coli BL21 CodonPlus cells using ATP and yeast RNA as substrate preincubated with enzyme for 20 mins followed by susbtrate addition and measured after 4 hrs by Malachite green ATPase assay
Chain of Eukaryotic initiation factor 4A-I (Homo sapiens, UniProt P60842, R110L) (P60842 2-406 R110L limits assumed): as the sequence (P60842 2-406 R110E limits assumed) above, with E109L counted along it

[20] = target: Eukaryotic initiation factor 4A-I (Homo sapiens, UniProt P60842, R311E); assay: Inhibition of human recombinant N-terminal His6-tagged eIF4A R311E mutant expressed in Escherichia coli BL21 CodonPlus cells using ATP and yeast RNA as substrate preincubated with enzyme for 20 mins followed by susbtrate addition and measured after 4 hrs by Malachite green ATPase assay
Chain of Eukaryotic initiation factor 4A-I (Homo sapiens, UniProt P60842, R311E) (P60842 2-406 R311E limits assumed): as the sequence (P60842 2-406 R110E limits assumed) above, with E109R, R310E counted along it

[21] = target: Eukaryotic initiation factor 4A-I (Homo sapiens, UniProt P60842, R110M); assay: Inhibition of human recombinant N-terminal His6-tagged eIF4A R110M mutant expressed in Escherichia coli BL21 CodonPlus cells using ATP and yeast RNA as substrate preincubated with enzyme for 20 mins followed by susbtrate addition and measured after 4 hrs by Malachite green ATPase assay
Chain of Eukaryotic initiation factor 4A-I (Homo sapiens, UniProt P60842, R110M) (P60842 2-406 R110M limits assumed): as the sequence (P60842 2-406 R110E limits assumed) above, with E109M counted along it

[22] = target: T1, Eukaryotic initiation factor 4A-I; assay: Inhibition of helicase activity of human recombinant N-terminal His6-tagged eIF4A expressed in Escherichia coli BL21 CodonPlus cells assessed as decrease in single stranded signal using Cy3-labeled RNA strand and unlabeled DNA strand by native PAGE analysis
Reticulocyte [23] = assay: Inhibition of IRES-dependent translation of renilla luciferase in rabbit reticulocyte lysates using bicistronic luciferase reporter [pSP/(CAG)33/FF/HCV/Ren.pA51] incubated for 90 mins by luciferase reporter gene based luminescence analysis; assay type: functional, subcellular; settings: Oryctolagus cuniculus
[24] = target: T1, Eukaryotic initiation factor 4A-I; assay: Displacement of MANT-ATP from human recombinant N-terminal His6-tagged eIF4A expressed in Escherichia coli BL21 CodonPlus cells at 1 mM preincubated with enzyme and yeast RNA for 20 mins followed by MANT-ATP addition for 30 mins by fluorescence polarization assay; settings: time 50.0 min
Reticulocyte [25] = assay: Inhibition of cap-dependent translation of firefly luciferase in rabbit reticulocyte lysates using bicistronic luciferase reporter [pSP/(CAG)33/FF/HCV/Ren.pA51] at 600 uM incubated for 90 mins by luciferase reporter gene based luminescence analysis; assay type: functional, subcellular; settings: Oryctolagus cuniculus
Reticulocyte [26] = assay: Inhibition of IRES-dependent translation of renilla luciferase in rabbit reticulocyte lysates using bicistronic luciferase reporter [pSP/(CAG)33/FF/HCV/Ren.pA51] at 600 uM incubated for 90 mins by luciferase reporter gene based luminescence analysis; assay type: functional, subcellular; settings: Oryctolagus cuniculus
[27] = Homo sapiens, BJAB, 72 h, read-out: EC50

SMILES: Nc1ccc(-c2ccc(-c3cc(C(=O)O)c4cc([N+](=O)[O-])ccc4n3)o2)cc1
- EC50 (BJAB; bjab): Not Active
- IC50 [1]: > 150 µM

SMILES: COC(=O)[C@H]1[C@@H](O)[C@@]2(O)c3c(OC)cc(O[C@@H]4O[C@@H]([C@H](O)CO)CO[C@H]4OC)cc3O[C@@]2(c2ccc(OC)cc2)[C@@H]1c1ccccc1
- inhibition (Reticulocyte [2]): inactive
- inhibition (Reticulocyte [3]): Active
- Activity [4]: Active

SMILES: CCCCc1ccc(-c2ccc(-c3cc(C(=O)O)c4cc([N+](=O)[O-])ccc4n3)o2)cc1
- EC50 (BJAB; [27]): 0.463 µM
- inhibition [5]: Active
- IC50 [6]: > 50 µM
- Activity [7]: Active
- inhibition [8]: Active
- IC50 [9]: 6.58 µM
- inhibition [10]: Active
- IC50 [11]: > 50 µM
- IC50 [12]: > 50 µM
- inhibition [13]: Active
- inhibition (Reticulocyte [14]): Active
- Activity [15]: Dose-Dependent Effect
- inhibition [16]: Active
- IC50 [17]: > 50 µM
- inhibition [18]: inactive
- IC50 [19]: > 50 µM
- IC50 [20]: > 50 µM
- IC50 [21]: > 50 µM
- inhibition [22]: Active
- inhibition (Reticulocyte [23]): inactive

SMILES: CCCCc1ccc(-c2ccc(-c3cc(C(=O)O)c4cc(NC(C)=O)ccc4n3)o2)cc1
- EC50 (BJAB; bjab): Not Active
- IC50 [1]: 126 µM

SMILES: CCCCc1ccc(-c2ccc(-c3cc(C(=O)O)c4cc(N)ccc4n3)o2)cc1
- EC50 (BJAB; bjab): Not Active
- IC50 [1]: > 150 µM

SMILES: Nc1ncnc2c1ncn2[C@@H]1O[C@H](COP(=O)(O)OP(=O)(O)O)[C@@H](O)[C@H]1O
- inhibition [24]: Active

SMILES: C[C@@H]1C[C@@H]([C@H](O)CC2CC(=O)NC(=O)C2)C(=O)[C@@H](C)C1
- inhibition (Reticulocyte [25]): Active
- inhibition (Reticulocyte [26]): Active

SMILES: CCCCc1ccc(-c2ccc(-c3cc(C(=O)O)c4cc(Br)ccc4n3)o2)cc1
- EC50 (BJAB; [27]): 2.13 µM
- IC50 [9]: 28.7 µM
- inhibition [10]: Active
- inhibition [13]: Active
- inhibition [16]: Active
- inhibition [22]: Active

SMILES: CCCCc1ccc(-c2ccc(-c3cc(C(=O)OCC)c4cc([N+](=O)[O-])ccc4n3)o2)cc1
- EC50 (BJAB; [27]): > 10 µM
- IC50 [1]: > 150 µM

SMILES: CCCCc1ccc(-c2ccc(-c3cc(C(=O)O)c4cc(C)cc(C)c4n3)o2)cc1
- IC50 [1]: 111 µM

SMILES: CCCCc1ccc(-c2ccc(-c3cc(C(=O)O)c4cc(C)ccc4n3)o2)cc1
- IC50 [1]: 105 µM

SMILES: CCCCc1ccc(-c2ccc(-c3cc(C(=O)O)c4cc([N+](=O)[O-])ccc4n3)s2)cc1
- IC50 [1]: 62.3 µM

SMILES: CCCCc1ccc(-c2ccc(-c3cc(C(=O)O)c4ccccc4n3)o2)cc1
- IC50 [1]: > 150 µM

SMILES: CCCCc1ccc(-c2ccc(-c3cc(C(=O)O)c4cccc([N+](=O)[O-])c4n3)o2)cc1
- EC50 [1]: 27.5 µM

SMILES: CCCCc1ccc(-c2ccc(-c3cc(C(=O)O)c4cc([N+](=O)[O-])ccc4n3)cc2)cc1
- IC50 [1]: 54.8 µM

SMILES: CCCCc1ccc(-c2ccc(-c3cc(C(=O)O)c4cc(I)ccc4n3)o2)cc1
- IC50 [1]: 41.5 µM

SMILES: O=C(O)c1cc(-c2ccc(-c3ccc(-c4ccccc4)cc3)o2)nc2ccc([N+](=O)[O-])cc12
- IC50 [1]: 66.1 µM

SMILES: CCCCc1ccc(-c2ccc(-c3cc(C(=O)O)c4cc(Cl)c(Cl)cc4n3)o2)cc1
- IC50 [1]: 90.1 µM

SMILES: O=C(O)c1cc(-c2ccc(-c3ccc4c(c3)OCO4)o2)nc2ccc([N+](=O)[O-])cc12
- IC50 [1]: > 150 µM

SMILES: Nc1cccc(-c2ccc(-c3cc(C(=O)O)c4cc([N+](=O)[O-])ccc4n3)o2)c1
- EC50 (BJAB; bjab): Not Active
- IC50 [1]: > 150 µM

SMILES: CCCCc1ccc(-c2ccc(-c3cc(C(=O)O)c4c(Cl)cccc4n3)o2)cc1
- IC50 [1]: 135 µM

SMILES: O=C(O)c1cc(-c2ccc(-c3ccccc3Oc3ccccc3)o2)nc2ccc([N+](=O)[O-])cc12
- IC50 [1]: 21 µM
